Source: patent publication US20230321063A1, “COMPOSITIONS AND METHODS TO REDUCE NEUROINFLAMMATION” (Seattle Children's Hospital d/b/a Seattle Children's …, priority 2020, published 2023)

Key:
[1] = system: microglia in mixed neonatal brain-cell cultures; assay: Fraction of microglia in mixed primary brain cultures (Iba1 staining); assay type: cell-based, mouse
Procedure: Mixed brain cell culturing and staining. Briefly, using sterile technique, brains were removed from neonatal pups into ice-cold HBSS (Gibco cat. #14025076). Brains were washed three times in cold PBS. After the third wash, brains were minced using surgical scissors into small, fine pieces. The minced brain was centrifuged at 100 g for 5 min. Once pelleted, PBS was removed and 0.05% trypsin/EDTA (Gibco) was added. The tissue in trypsin/EDTA was then incubated at 37° C. with gentle shaking for 15-30 min, with intermittent mixing and supplemental mincing, until the solution was homogenous and without tissue segments. After incubation, the minced tissue was placed back into the centrifuge at 100 g 5 min. Pellet was washed 3× with cold PBS before adding fresh media to each tube. The tissue was further dissociated using 1000 μL pipet until the solution became cloudy. The sample was washed through a sterile 70-micron cell strainer (Corning) into a 50 mL falcon tube, then plated onto T75 poly-d-lysine coated Nunclon flasks (Nunc EasyFlask132704) at a ratio of one brain to two flasks. After 24 hours, dead cell/debris were washed and media replaced. Cells were then grown for 1 additional day, split onto multi-well plates with poly-d-lysine coated coverslips (Cellware 12 mm round coverslips) at 25% confluence with ABI-009 or pexidartinib (for dose-response) added. […]

[2] = system: control and Ndufs4(KO) mice; assay: Plasma ALT and AST enzymatic activity assays; assay type: in vivo, mouse; conditions: 300 mg/kg/day, both genotypes
Procedure: Plasma ALT and AST measures. Small volumes (5-10 μL) of blood were collected using tail-prick and heparinized microhematocrit tubes (Fisher Scientific cat. #22-362566), placed on ice in 15 mL sample tubes, then moved (by pipette) into 1.5 mL microcentrifuge tubes and stored at −80° C. until used for ALT and AST enzymatic assays. ALT and AST were quantified using colorimetric enzymatic activity assay kits (Sigma, cat. #'s MAK052 and MAK055, respectively) according to manufacturer recommendations. Absorbance was measured on a NanoDrop 1000 (ThermoScientific).

Ndufs4(KO) mice = assay: Body weight, growth and cachexia onset; assay type: in vivo, mouse
Procedure: Ndufs4(+/−) mice were bred to produce Ndufs4(KO) (Ndufs4(−/−)) offspring. Mice were weaned at 20-21 days of age. Ndufs4(KO) animals were housed with a minimum of one control littermate for warmth and stimulation. Mice were weighed, and health assessed, a minimum of 3 times per week, every other day (daily for IP injected mice, see herein). Where longitudinal blood point-of-care data was collected, this was performed during these health checks. Wetted chow in a dish on the bottom of each cage, and in-cage water bottles, were provided to all cages housing Ndufs4(KO) mice following the onset of disease so that the ability to find or reach food or water was not a limiting factor for survival.
Cachexia in FIG. 4H and FIG. 6E is the day of life when weight peaks prior to the progressive weight loss which occurs in untreated Ndufs4(KO) animals.

[3] = system: CNS lesions in Ndufs4(KO) mice; assay: Brain immunological staining: brainstem and cerebellar CNS lesions; assay type: in vivo, mouse; conditions: 300 mg/kg/day
Procedure: Brain immunological staining and microscopy. Brains were fixed for 48 hours in 10% formalin at 4° C. Following fixation, brains were moved to a cryoprotectant solution (30% sucrose, 1% DMSO, 100 μM glycine, 1×PBS, 0.45 μm filtered, pH 7.5), and stored for over 48 hours, until the fixed tissues sank to the bottom. Tissues were then placed in OCT media (Tissue-Tek OCT compound, Sakura 0004348-01), frozen in cryoblock holders on dry ice, and stored at −80° C. until sectioned for staining. Cryoblocks were cut at 50 μm thickness using a Leica CM30505 cryostat set at −40° C. Slices were moved to 1×PBS and stored at 4° C. until used for staining. Prior to staining, slices were mounted on slides and briefly dried to adhere.
Antibody staining was performed as follows: slides were first incubated in an antigen retrieval and permeabilization buffer (0.05% Triton X-100, 50 μM digitonin, 10 mM Tris-HCl, 1 mM EDTA, pH 9.0) at 60° C. overnight in a white-light LED illuminated box (to promote photobleaching of tissue autofluorescence). To reduce formaldehyde induced background fluorescence, slides were treated with sodium borohydride in ice cold PBS, added at 1 mg/mL immediately before incubation, on ice for 30 min, then moved to 10 mM glycine 1×PBS, pH 7.4, for 5 min at room temperature. Lipid background fluorescence was then blocked by incubating slides in 0.2 μm filtered Sudan Black B solution (5 mg/mL in 70% ethanol) overnight at room temperature. Slides were then rinsed twice, 5 min each, in 1×PBS. Excess fluid was wiped from the slide, and the tissue was circled using Liquid Blocker PAP pen (Fisher Scientific, NC9827128) to hold staining solutions. Slides were blocked for 15 min at room temperature in 1×PBS with 10% rabbit serum (Gibco, 16120-099) then stained overnight at 4° C. in a mixture of rabbit anti-IBA1-fluorochrome 635 conjugated (WAKO 013-26471) at 1:300, mouse anti-GFAP, Alexa555 conjugated (Cell Signaling, 3656S) at 1:300, and DAPI (Sigma, D9542) at 1 μg/mL. […]

FC(F)(F)c1ccc(CNc2ccc(Cc3c[nH]c4ncc(Cl)cc34)cn2)cn1 [pexidartinib, 5-[(5-chloro-1H-pyrrolo[2,3-b]pyridin-3-yl)methyl]-N-[[6-(trifluoromethyl)pyridin-3-yl]methyl]pyridin-2-amine]
maximum effect on microglia [1]: nearly complete depletion of microglia | fraction of microglia present in mixed neonatal brain-cell cultures ([1]; dose-response, fixed on day 7): dose-dependently reduced | ALT level [2]: significantly elevated | AST level [2]: significantly elevated | cachexia (Ndufs4(KO) mice): prevented | gliosis (microgliosis and astrocytosis) at CNS lesion sites [3]: completely prevented | brainstem CNS lesions ([3]; immunohistochemistry): complete (as detected by immunohistochemistry) prevention | cerebellar CNS lesions ([3]; immunohistochemistry): complete (as detected by immunohistochemistry) prevention
